Data published in patent publication US3941763A, “PGlu-D-Met-Trp-Ser-Tyr-D-Ala-Leu-Arg-Pro-Gly-NH2 and intermediates” (American Home Products Corporation, priority 1975, dated 1976).
Non-standard residues stand in square brackets, D forms with d. Residues, ends and D or L forms follow the SMILES beside them. pGlu = O=C1CC[C@@H](C(=O)O)N1

How the values were obtained:
[1] = test system: rat pituitary tissue cultures; assay: Inhibition of LRH-induced release of LH in vitro in rat pituitary tissue cultures; assay type: cell-based
Description: LH concentration is determined by double-antibody radioimmunoassay.

[2] = test system: LRH-induced release of LH; assay: Inhibition of LRH-induced release of LH in vivo in rats; design: species or system Male Sprague-Dawley rats
Description: Male Sprague-Dawley rats are divided into two groups of at least 5 animals in each group. One group receives the test compound. The other is the control group (no test compound). At zero time, the test group receives a 100-ng dose (subcutaneous) of D--Met^2 --D--Ala^6 --LRH in 0.2 ml. of physiological saline, while the control group receives a 0.2 ml. dose of physiological saline alone. At 20 minutes, blood samples are removed by cardiac puncture, and LH concentration is determined by double-antibody radioimmunoassay. At 45 minutes, the zero-time dose is repeated for each group of animals. At 50 minutes, the animals in each group are given a 200-ng dose (subcutaneous) of LRH in 0.2 ml. of physiological saline. A second blood sample is removed by cardiac puncture at 70 minutes and LH concentration is determined.

SMILES | LH concentration ([1]; LRH 5 ng/ml alone, no test compound) [ng/mL] | LH Plasma Conc. ([2]; time 20 minutes, before LRH administration, 100 ng s.c. test compound at zero time) [ng/mL] | LH Plasma Conc. ([2]; time 70 minutes, after LRH administration (200 ng s.c. at 50 min), 100 ng s.c. test compound at 0 and 45 min) [ng/mL] | LH concentration ([1]; LRH 5 ng/ml + D-Met2-D-Ala6-LRH 10 ng/ml, double-antibody radioimmunoassay) [ng/mL] | LH concentration ([1]; LRH 5 ng/ml + D-Met2-D-Ala6-LRH 100 ng/ml, double-antibody radioimmunoassay) [ng/mL] | LH concentration ([1]; LRH 5 ng/ml + D-Met2-D-Ala6-LRH 1000 ng/ml, double-antibody radioimmunoassay) [ng/mL]
CC(C)C[C@H](NC(=O)CNC(=O)[C@H](Cc1ccc(O)cc1)NC(=O)[C@H](CO)NC(=O)[C@H](Cc1c[nH]c2ccccc12)NC(=O)[C@H](Cc1c[nH]cn1)NC(=O)[C@@H]1CCC(=O)N1)C(=O)N[C@@H](CCCNC(=N)N)C(=O)N1CCC[C@H]1C(=O)NCC(N)=O [LRH, L--pGlu--His--Trp--Ser--Tyr--Gly--Leu--Arg--Pro--Gly--NH2, reference compound] | 282 ± 11 | – | – | – | – | –
CSCC[C@@H](NC(=O)[C@@H]1CCC(=O)N1)C(=O)N[C@@H](Cc1c[nH]c2ccccc12)C(=O)N[C@@H](CO)C(=O)N[C@@H](Cc1ccc(O)cc1)C(=O)N[C@H](C)C(=O)N[C@@H](CC(C)C)C(=O)N[C@@H](CCCNC(=N)N)C(=O)N1CCC[C@H]1C(=O)NCC(=O)O [D--Met^2 --D--Ala^6 --LRH, L-Pyroglutamyl-D-methionyl-L-tryptophyl-L-seryl-L-tyrosyl-D-alanyl-L-leucyl-L-arginyl-L-prolyl-glycine] ([pGlu][dM]WSY[dA]LRPG-OH) | – | 10 ± 4 | 25 ± 5 | 308 ± 2 | 143 ± 2 | 92 ± 2
